Data as given in patent publication US8729089B2 (Gilead Sciences, Inc., priority 2006, dated 2014).

Legend:
[1] = system: HCV replicon in human hepatoma Huh-7 cell line; test: Anti-HCV replicon assay (EC50, luciferase); format: cell-based; conditions: Hepatitis C virus, Huh-7, 72 h
Method in brief: (§1)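 Cytotoxicity (CC50) measured by CellTiter-Glo and antiviral activity (EC50) by luciferase signal from lysed cells, both by luminescence. Replicon-bearing Huh-7 cells, 6000 per well, incubated 3 days at 37 °C with threefold-diluted compound (0.5% DMSO for DMSO-dissolved compounds).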

[2] = CC50 assay (CellTiter-Glo) in Huh-7 HCV replicon cells; format: cell-based, human; conditions: human, 3 days incubation, CellTiter-Glo readout
Method in brief: as §1

Row | SMILES | EC50 [1] [µM] | CC50 at 3 days [2] [µM]
1 | CCOc1nc(NCc2ccc(S(N)(=O)=O)cc2)nc2ccc(-c3ccc(NC(=O)C4(O)CC4)cc3)nc12 [Example 136, 4-{[4-Ethoxy-6-(4-((1-hydroxy-1-cyclopropyl)-carboxamido)-phenyl)-pyrido[3,2-d]pyrimidin-2-ylamino]-methyl}-benzenesulfonamide] | < 0.1 | 5 to 25
2 | CCOc1nc(NCc2ccc(S(N)(=O)=O)cc2)nc2ccc(-c3ccc(NC(=O)[C@@H](N)CO)cc3)nc12 [Example 137, (S)-4-{[4-Ethoxy-6-(4-((2-hydroxy-1-aminoethyl)-carboxamido)-phenyl)-pyrido[3,2-d]pyrimidin-2-ylamino]-methyl}-benzenesulfonamide] | < 0.1 | 5 to 25
3 | CCOc1nc(NCc2ccc(S(N)(=O)=O)cc2)nc2ccc(-c3ccc(C(N)=O)cc3)nc12 [Example 138, 4-{[4-Ethoxy-6-(4-carbamoylphenyl)-pyrido[3,2-d]pyrimidin-2-ylamino]-methyl}-benzenesulfonamide] | < 0.1 | 5 to 25
4 | CCOc1nc(NCc2ccc(S(N)(=O)=O)cc2)nc2ccc(-c3ccc(F)c(NS(=O)(=O)C4CC4)c3)nc12 [Example 139, 4-{[4-Ethoxy-6-(4-(3-cyclopropanesulfonamido-4-fluoro)-phenyl)-pyrido[3,2-d]pyrimidin-2-ylamino]-methyl}-benzenesulfonamide] | < 0.1 | < 5
5 | CCOc1nc(NCc2ccc(S(N)(=O)=O)cc2)nc2ccc(-c3cccc(N(CCO)S(C)(=O)=O)c3)nc12 [Example 140, 4-{[4-Ethoxy-6-(4-(3-(N-2-hydroxy-ethyl)methanesulfonamido)-phenyl)-pyrido[3,2-d]pyrimidin-2-ylamino]-methyl}-benzenesulfonamide] | 0.1 to 0.25 | > 25
6 | CCOc1nc(NCc2ccc(S(N)(=O)=O)cc2)nc2ccc(-c3ccc(C(=O)NC(C)(C)CN4CCCC4)cc3)nc12 [Example 142, 4-{[4-Ethoxy-6-(4-(N-(2-(pyrrolidin-1-yl)methyl-2-propyl)-carbamoyl)phenyl)-pyrido[3,2-d]pyrimidin-2-ylamino]-methyl}-benzenesulfonamide] | < 0.1 | < 5
7 | CCOc1nc(NCc2ccc(S(N)(=O)=O)cc2)nc2ccc(-c3ccc(C(=O)NC4(C#N)CC4)cc3)nc12 [Example 143, 4-{[4-Ethoxy-6-(4-(N-(1-cyano-1-cyclopropyl)-carbamoyl)phenyl)-pyrido[3,2-d]pyrimidin-2-ylamino]-methyl}-benzenesulfonamide] | < 0.1 | 5 to 25
8 | CCOc1nc(NCc2ccc(S(N)(=O)=O)cc2)nc2ccc(-c3ccc(C(=O)NC4CC4)cc3)nc12 [Example 144, 4-{[4-Ethoxy-6-(4-(N-cyclopropylcarbamoyl)phenyl)-pyrido[3,2-d]pyrimidin-2-ylamino]-methyl}-benzenesulfonamide] | < 0.1 | 5 to 25
9 | CCOc1nc(NCc2ccc(S(N)(=O)=O)cc2)nc2ccc(-c3ccc(F)c(S(N)(=O)=O)c3)nc12 [Example 145, 5-[4-Ethoxy-2-(4-sulfamoyl-benzylamino)-pyrido[3,2-d]pyrimidin-6-yl]-2-fluoro-benzenesulfonamide] | < 0.1 | 5 to 25
10 | CCOc1nc(NCc2ccc(S(N)(=O)=O)cc2)nc2ccc(-c3ccc(NC(=O)[C@H](C)N)cc3)nc12 [Example 146, 2-Amino-N-{4-[4-ethoxy-2-(4-sulfamoyl-benzylamino)-pyrido[3,2-d]pyrimidin-6-yl]-phenyl}-propionamide] | < 0.1 | 5 to 25
11 | CCOc1nc(NCc2ccc(S(N)(=O)=O)cc2)nc2ccc(-c3ccc(NC(=O)[C@@H](N)[C@@H](C)O)cc3)nc12 [Example 147, 2-Amino-N-{4-[4-ethoxy-2-(4-sulfamoyl-benzylamino)-pyrido[3,2-d]pyrimidin-6-yl]-phenyl}-3-hydroxy-butyramide] | < 0.1 | < 5
12 | CS(=O)(=O)CCNc1nc(NCc2ccc(S(N)(=O)=O)cc2)nc2ccc(-c3cnc(N)s3)nc12 [Example 148, 4-{[4-(2-Methanesulfonylethyl)-amino-6-(2-aminothiazole-5-yl)-pyrido[3,2-d]pyrimidin-2-ylamino]-methyl}-benzenesulfonamide] | < 0.1 | 5 to 25
13 | NS(=O)(=O)c1ccc(CNc2nc(NCC(F)(F)F)c3nc(-c4ccc(F)cc4)ccc3n2)cc1 [Example 149, 4-{[4-(2,2,2-Trifluoroethyl)-amino-6-(4-fluorophenyl)-pyrido[3,2-d]pyrimidin-2-ylamino]-methyl}-benzenesulfonamide] | < 0.1 | 5 to 25
14 | CS(=O)(=O)CCNc1nc(NCc2ccc(S(N)(=O)=O)cc2)nc2ccc(-c3ccc(F)c(Cl)c3)nc12 [Example 150, 4-{[4-(2-Methanesulfonylethyl)-amino-6-(3-chloro-4-fluorophenyl)-pyrido[3,2-d]pyrimidin-2-ylamino]-methyl}-benzenesulfonamide] | < 0.1 | < 5
15 | NS(=O)(=O)c1ccc(CNc2nc(NCC(F)F)c3nc(-c4ccc(F)cc4)ccc3n2)cc1 [Example 151, 4-{[4-(2,2-Difluoroethyl)-amino-6-(4-fluorophenyl)-pyrido[3,2-d]pyrimidin-2-ylamino]-methyl}-benzenesulfonamide] | < 0.1 | < 5
16 | CN(CCS(C)(=O)=O)c1nc(NCc2ccc(S(N)(=O)=O)cc2)nc2ccc(-c3ccc(F)cc3)nc12 [Example 152, 4-{[4-(N-(2-Methanesulfonylethyl)-N-methyl)-amino-6-(4-fluorophenyl)-pyrido[3,2-d]pyrimidin-2-ylamino]-methyl}-benzenesulfonamide] | < 0.1 | < 5
17 | CS(=O)(=O)CCNc1nc(NCc2ccc(S(N)(=O)=O)cc2)nc2ccc(-c3ccc(F)cc3)nc12 [Example 153, 4-{[4-(2-Methanesulfonylethyl)-amino-6-(4-fluorophenyl)-pyrido[3,2-d]pyrimidin-2-ylamino]-methyl}-benzenesulfonamide] | < 0.1 | < 5
18 | CC(C)(N)C(=O)Nc1ccc(-c2ccc3nc(NCc4ccc(S(N)(=O)=O)cc4)nc(NCCS(C)(=O)=O)c3n2)cc1 [Example 154, 4-{[4-(2-Methanesulfonylethyl)-amino-6-(4-((2-amino-2-propyl)-carboxamido)-phenyl)-pyrido[3,2-d]pyrimidin-2-ylamino]-methyl}-benzenesulfonamide] | 0.1 to 0.25 | > 25
19 | CS(=O)(=O)CCNc1nc(NCc2ccc(S(N)(=O)=O)cc2)nc2ccc(-c3ccc(NC(=O)C4(O)CC4)cc3)nc12 [Example 155, 4-{[4-(2-Methanesulfonylethyl)-amino-6-(4-((1-hydroxy-1-cyclopropyl)-carboxamido)-phenyl)-pyrido[3,2-d]pyrimidin-2-ylamino]-methyl}-benzenesulfonamide] | 0.1 to 0.25 | > 25
20 | N[C@@H](CO)C(=O)Nc1ccc(-c2ccc3nc(NCc4ccc(S(N)(=O)=O)cc4)nc(NCC(F)(F)F)c3n2)cc1 [Example 156, (S)-4-{[4-(2,2,2-Trifluoroethyl)-amino-6-(4-((2-hydroxy-1-aminoethyl)-carboxamido)-phenyl)-pyrido[3,2-d]pyrimidin-2-ylamino]-methyl}-benzenesulfonamide] | < 0.1 | < 5
21 | CS(=O)(=O)N(CCO)c1cccc(-c2ccc3nc(NCc4ccc(S(N)(=O)=O)cc4)nc(NCC(F)F)c3n2)c1 [Example 157, 4-{[4-(2,2-Difluoroethyl)-amino-6-(4-(3-(N-2-hydroxyethyl)methane-sulfonamido)-phenyl)-pyrido[3,2-d]pyrimidin-2-ylamino]-methyl}-benzenesulfonamide] | < 0.1 | > 25
22 | NS(=O)(=O)c1ccc(CNc2nc(NCC(F)(F)F)c3nc(-c4ccc(C(=O)NC5CC5)cc4)ccc3n2)cc1 [Example 158, 4-{[4-(2,2,2-Trifluoroethyl)-amino-6-(4-(N-cyclopropylcarbamoyl)-phenyl)-pyrido[3,2-d]pyrimidin-2-ylamino]-methyl}-benzenesulfonamide] | < 0.1 | 5 to 25
23 | N#CC1(NC(=O)c2ccc(-c3ccc4nc(NCc5ccc(S(N)(=O)=O)cc5)nc(NCC(F)(F)F)c4n3)cc2)CC1 [Example 159, 4-{[4-(2,2,2-Trifluoroethyl)-amino-6-(4-(N-(1-cyano-1-cyclopropyl)-carbamoyl)phenyl)-pyrido[3,2-d]pyrimidin-2-ylamino]-methyl}-benzenesulfonamide] | < 0.1 | > 25
24 | NC(=O)c1ccc(-c2ccc3nc(NCc4ccc(S(N)(=O)=O)cc4)nc(NCC(F)(F)F)c3n2)cc1 [Example 160] | < 0.1 | 5 to 25
25 | CS(=O)(=O)N(CCO)c1cccc(-c2ccc3nc(NCc4ccc(S(N)(=O)=O)cc4)nc(NCC(F)(F)F)c3n2)c1 [Example 161, 4-{[4-(2,2,2-Trifluoroethyl)-amino-6-(4-(3-(N-2-hydroxyethyl)methane-sulfonamido)-phenyl)-pyrido[3,2-d]pyrimidin-2-ylamino]-methyl}-benzenesulfonamide] | < 0.1 | > 25
26 | CS(=O)(=O)CCNc1nc(NCc2ccc(S(N)(=O)=O)cc2)nc2ccc(-c3ccc(C(=O)NC4CC4)cc3)nc12 [Example 162, 4-{[4-(2-Methanesulfonylethyl)-amino-6-(4-(N-cyclopropylcarbamoyl)-phenyl)-pyrido[3,2-d]pyrimidin-2-ylamino]-methyl}-benzenesulfonamide] | 0.1 to 0.25 | > 25
27 | CS(=O)(=O)CCNc1nc(NCc2ccc(S(N)(=O)=O)cc2)nc2ccc(-c3ccc(F)c(NS(=O)(=O)C4CC4)c3)nc12 [Example 164, 4-{[4-(2-Methanesulfonylethyl)-amino-6-(4-(3-cyclopropanesulfonamido-4-fluoro)-phenyl)-pyrido[3,2-d]pyrimidin-2-ylamino]-methyl}-benzenesulfonamide] | 0.1 to 0.25 | > 25
